Laboratory results taken from patent publication US8207403B2, “EPSP synthase with high glyphosate resistance and its encoded sequence” (Biotechnology Research Institute The Chinese Academy of …, priority 2007, dated 2012).

Columns and labels:
[1] = test system: GR-79 EPSP synthase (5-enolpyruvylshikinate-3-phosphate synthase), SEQ ID NO:1; assay: EPSP synthase enzyme activity and kinetic parameters (inorganic phosphorus release, PEP + S3P); type: biochemical
Procedure: (§1) Standard curve of inorganic phosphorus: 10 mM inorganic phosphorus was diluted at 1:10, and 0, 1, 2, 3 . . . 20 μl was taken into 1.5 ml Eppendorf tube and milli-Q purified water was added up to 100 μl with mixing, 0.8 ml MAT solution was added with mixing, and then 100 μl 34% SC solution was quickly added with mixing after 3 min, kept at room temperature for 20 min and then the OD660 value was determined. Repeat the operations three times as above. The standard curve of inorganic phosphorus was achieved using the concentration of inorganic phosphorus as abscissa and the OD660 value as ordinate.
(§2) 1) Enzyme activity test: The crude protein extracted with enzyme was quantified using Coomassie Blue G-250 method (Bradford, 1976). The follow solutions were added into 1.5 ml Eppendorf tube on the ice: 2 μl of 10 mM PEP solution, 2 μl of 10 mM S3P solution, 2 μl of 0.5M HEPES solution, 2 μl of 1 mM (NH4)6MO7O24.4H2O solution and 12 μl of milli-Q purified water with mixing, bathed at 28° C. for 5 min and 1 μl crude enzyme solution was added into each, tube at intervals and timing, 200 μl MAT solution was added after 2 min at 2s intervals again, color development was performed for 3 min, and then 20 μl of 34% SC solution was added at 2s intervals and quickly mixed well, the color was developed for 20 min at room temperature and finally the OD660 value was determined. […]

[2] = test system: E. coli ER2799 (EPSP synthase defective) carrying pACYCGR-79 (GR-79-ER); assay: Glyphosate tolerance test, strain GR-79-ER; type: cell-based; settings: M9 liquid medium, 37° C., 36 h, OD600
Procedure: FIG. 1 is a graph of analysis of glyphosate resistance of clone GR-79, wherein: GR-79-ER strain was a strain with glyphosate resistance obtained by cutting the total DNA of soil with enzyme partly, ligating the vector pACYC 184 and introducing into EPSP synthase defective E. coli ER2799 strain (NEB Company).
(§3) The three strains were respectively inoculated into the limited medium M9 with the glyphosate concentration of 0, 20, 50, 80, 100, 120, 150, 200, 250, 300 mM, shaking cultured at 37° C. for 36 h, the absorbance values were determined at OD600 and the figure was plotted with the values.
(§4) E. coli ER2799 (containing new cloned pACYCGR-79 plasmid) was inoculated into M9 liquid medium (Cm^r) with 0-200 mm glyphosate, shaking cultured at 37° C. for 36 h, and the OD600 value of culture was determined. E. coli ER2799 with plasmid without insert was used as negative control.

[3] = test system: E. coli ER2799 (EPSP synthase defective) with EPSP synthase gene from Agrobacterium sp. cp4 (CP4-ER); assay: Glyphosate tolerance test, positive control strain CP4-ER; type: cell-based; settings: M9 liquid medium, 37° C., 36 h, OD600
Procedure: CP4-ER strain was a strain with glyphosate resistance obtained by ligating the EPSP synthase gene from Agrobacterium sp. cp4 to the vector pACYC 184 and introducing into EPSP synthase defective E. coli ER2799 strain (NEB Company). It was used as a positive control in the figure.
as §3, §4

[4] = test system: transgenic tobacco with GR-79 EPSP synthase gene; assay: Glyphosate resistance gradient assay of transgenic tobacco; type: in vivo; settings: greenhouse
Source text: The plant expression vector of EPSP synthase gene with high glyphosate resistance was constructed and transgenic tobaccos were constructed by transformation using leaf disc cocultivation.
(8) The plants were removed when the root systems were large, the solid medium attached was washed off with sterile water, and the plants were transferred into the soil, covered with a glass cover for several days at the beginning days, and the cover was removed after the plants were robust, and then the plants were transferred to the solid medium with 10 mM glyphosate to screen the plant strains with glyphosate resistance;

GR-79 EPSP = GR-79 EPSP (uncultured soil bacterium (soil metagenome), UniProt A5Y5A5); assay: Enzyme activity test of EPSP synthase (inorganic phosphorus release); type: biochemical; settings: crude enzyme, PEP and S3P substrates, 28° C., OD660
Chain of GR-79 EPSP (A5Y5A5 entry or part of it): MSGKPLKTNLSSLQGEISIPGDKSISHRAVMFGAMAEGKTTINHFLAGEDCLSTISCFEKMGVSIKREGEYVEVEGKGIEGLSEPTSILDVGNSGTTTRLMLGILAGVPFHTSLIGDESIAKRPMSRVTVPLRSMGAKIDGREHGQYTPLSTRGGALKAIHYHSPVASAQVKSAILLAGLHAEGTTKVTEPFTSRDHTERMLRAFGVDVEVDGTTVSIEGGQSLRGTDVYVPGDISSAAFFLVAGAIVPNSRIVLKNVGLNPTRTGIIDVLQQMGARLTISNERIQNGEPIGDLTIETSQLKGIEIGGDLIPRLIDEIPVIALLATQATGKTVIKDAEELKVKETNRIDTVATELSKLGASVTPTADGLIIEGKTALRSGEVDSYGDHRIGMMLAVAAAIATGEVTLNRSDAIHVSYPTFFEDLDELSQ
Procedure: as §1, §2

Molecule: C=C(OP(=O)(O)O)C(=O)O [PEP]
- Km ([1]; S3P maintained at 1 mM, PEP 0.05-1.0 mM, Eadie-Hofstee): 79.2 ± 32 µM

Molecule: O=C(O)CNCP(=O)(O)O [glyphosate]
- Ki/Km ([1]; Ki (glyphosate) / Km (PEP)): 2.16
- glyphosate resistance (highest glyphosate concentration allowing growth) [2]: 250 mM
- glyphosate resistance (highest glyphosate concentration allowing growth) [3]: 200 mM
- growth of transgenic plants in medium with 20 mM glyphosate [4]: could grow well

B1: GR-79 EPSP: new type I EPSP synthase with high glyphosate resistance, 445 amino acids, SEQ ID NO:1 (protein)
chain: MSHSTSRSPWSKATEYHEALVTPTSNKINGEIFVPGSKSYTNRALIIAALAEGTSTLKGILKSDDSYWCIDALRRLGIKIEVAEETVTIHGCGGKWPVQSAELFIGAAGTIARFLPGALAVAQQGEWIVDGVPQLRERPLKPLVDALTQLGGRIEYLTEHPGLPLRVKGAGLSGQHVRVPGNVSSQFLSGLLIASPYASEAVSIEVINGLVQPSYIAITIQLMREFGAKVEHNEDYSLFKVYPTGYQGRDTILEADASTACYFLSLAALTGGTIQVKNVGYHSYQPDARFIDVLEQMGCEVIKNESFLEVTGPTRLKGGFEVDMKPMSDQALTIGALAPFADAPIRVTNVAHIRAHESDRIAVICSSLQQMGVQVEEREDGFTIYPGQPVGTTLNPHDDHRNAMVFGLLGVKVPHIRIVDPGCVSKTCPAYFEELQKFGIHVEYN
modifications: From a mixture of organisms
- enzyme activity (GR-79 EPSP): 10.477 U/mg
